In patent US20120141586A1, “THROMBIN RECEPTOR ANTAGONIST AND CLOPIDOGREL FIXED DOSE TABLET” (priority 2009, published 2012):
Entries after “also recorded” stand apart in the source; their conditions may differ.

Legend:
thrombin receptor = target: T1, thrombin receptor (Homo sapiens, UniProt P25116); details: cited from earlier work
T1 sequence (P25116 22-425): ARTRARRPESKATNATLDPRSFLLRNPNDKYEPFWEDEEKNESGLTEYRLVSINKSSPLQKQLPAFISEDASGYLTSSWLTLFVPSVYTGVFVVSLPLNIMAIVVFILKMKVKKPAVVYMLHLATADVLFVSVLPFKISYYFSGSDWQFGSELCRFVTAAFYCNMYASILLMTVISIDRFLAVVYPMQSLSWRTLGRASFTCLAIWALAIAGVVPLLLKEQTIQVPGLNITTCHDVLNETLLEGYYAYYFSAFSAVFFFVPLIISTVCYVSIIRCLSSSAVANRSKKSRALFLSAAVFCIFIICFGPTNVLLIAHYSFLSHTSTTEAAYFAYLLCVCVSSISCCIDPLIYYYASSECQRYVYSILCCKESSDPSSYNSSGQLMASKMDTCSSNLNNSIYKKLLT

[1] = Compatibility studies between clopidogrel premix and 530348 bisulfate / free base
Source text: b. […] Clopidogrel is known to degrade under acidic and alkaline conditions. […] To test this hypothesis, the above studies were repeated in the presence of 530348 free base.

[2] = forced degradation data generated at Dr. Reddy's Lab; cited from earlier work

| Compound | Selectivity (thrombin receptor) | Thrombin receptor antagonist activity (potency) (thrombin receptor) | Extent of clopidogrel degradation ([1]; bisulfate salt compared to 530348 free base (FIG. 2)) | Clopidogrel degradation ([1]; in the presence of 530348 bisulfate) | Susceptibility of clopidogrel to degradation [2] |
| --- | --- | --- | --- | --- | --- |
| CCOC(=O)N[C@@H]1CC[C@@H]2[C@@H](C1)C[C@H]1C(=O)O[C@H](C)[C@H]1[C@H]2/C=C/c1ccc(-c2cccc(F)c2)cn1 [SCH 530348 bisulfate] | good | good | – | – | – |
| COC(=O)[C@H](c1ccccc1Cl)N1CCc2sccc2C1 [clopidogrel] | – | – | greater in the presence of the bisulfate salt | significant degradation; also recorded: degrades | susceptible to degradation upon exposure to heat, humidity, and oxygen |
| CCOC(=O)N[C@@H]1CC[C@@H]2[C@@H](C1)C[C@H]1C(=O)O[C@H](C)[C@H]1[C@H]2/C=C/c1ccc(-c2cccc(F)c2)cn1 [SCH 530348, ethyl[(1R,3aR,4aR,6R,8aR,9S,9aS)-9-[(E)-2-[5-(3-fluorophenyl)-2-pyridinyl]ethenyl]dodecahydro-1-methyl-3-oxonaphtho[2,3-c]furan-6-yl]carbamate] | good | good | – | – | – |
